Assay results published in patent US20210186950A1, “COMBINATIONS COMPRISING TROPIFEXOR AND CENICRIVIROC” (NOVARTIS AG, priority 2018, published 2021).
Entries after “also recorded” stand apart in the source; their conditions may differ. Like-named read-outs stand apart in the source and are kept apart here.

Assays:
[1] = tested on: NASH with liver fibrosis; settings: cited from earlier work
[2] = Drug-drug interaction study between TRX and CVC in healthy and healthy but overweight to obese subjects (plasma pharmacokinetics, tolerability); format: in vivo, human; settings: for AUC(0-t) / Cmax: human, plasma, oral, TRX 60 μg
Description: This is a single site, randomized, parallel group, 3 arm double-blind, double-dummy study to evaluate the potential drug-drug interaction between TRX and CVC in healthy and healthy but overweight to obese subjects. Healthy and healthy but overweight to obese subjects with body mass index (BMI) up to 32, are included to give a better representation of the NASH patients that will be studied in future clinical studies. The subjects were randomized into 3 arms a) TRX monotherapy, b) CVC monotherapy, and c) TRX and CVC as a combination.
A total of 42 subjects were randomized into the 3 parallel arms receiving single daily doses of TRX, CVC, and TRX+CVC combination.
This study examined doses of 60 μg of tropifexor and 150 mg of CVC given with a standard breakfast.
Pharmacokinetics: Sample collections included time points up to 24 hours after the first (Day 1) and the last (Day 14) doses to establish the AUC0-24 h,Cmax AUC0-24 h,ss and Cmax,ss for TRX, CVC, and TRX+CVC plasma concentration-time profiles.

[3] = Phase I studies of CVC, tolerability; format: in vivo, human; settings: single doses up to 900 mg; multiple daily doses up to 400 mg for 10 days
[4] = 1-month combination toxicity study with CVC and TRX; format: in vivo; settings: CVC 30 mg/kg/day alone
Method: A 1-month combination toxicity study was performed with cenicriviroc (CVC) (30 mg/kg/day) and tropifexor (TRX) (0.03 mg/kg or 1 mg/kg/day).

[5] = tested on: nonalcoholic steatohepatitis; settings: cited from earlier work
[6] = Safety in single dose studies of TRX; format: in vivo, human; settings: single dose studies up to 3000 μg
Method: (§1) A total of 69 subjects have received TRX at doses ranging from 10 μg to 3000 μg in single or 10 μg to 100 μg in multiple daily doses.

[7] = tested on: FXR; test: FGF19 biomarker in single and multiple dose studies of TRX; format: in vivo, human; settings: single doses 10-3000 μg or multiple daily doses 10-100 μg; 69 subjects
Method: as §1

[8] = NASH adults with liver fibrosis, one year
[9] = Day 1, dosed alone, CVC 150 mg, with standard breakfast, read-out: area under the concentration-time curve (AUC0-24 h)
[10] = Day 1, dosed alone, CVC 150 mg, with standard breakfast, read-out: observed peak drug concentration (Cmax)
[11] = Day 14, dosed alone, CVC 150 mg daily, read-out: steady-state AUC0-24 h,ss
[12] = Day 14, dosed alone, CVC 150 mg daily, read-out: steady-state Cmax,ss
[13] = Day 14, TRX 60 μg + CVC 150 mg daily

SMILES | fibrosis [1, 8] | improvement of NAS [1, 8] | adverse effects ([1]; patients) | accumulation in plasma over the study duration ([2]; 150 mg daily, Day 1 to Day 14) | impact of co-administration with TRX on Cmax and AUC0-24 h of CVC ([2]; CVC 150 mg + TRX 60 μg) | AUC(0-t) [2, 9] | Cmax [2, 10] | AUC(0-t) [2, 11] | Cmax [2, 12] | tolerability [3] | microscopic findings indicative of toxicity [4] | adverse effects on long term administration [5] | safety concerns [6] | decrease of AUC0-24 h of TRX on co-administration of CVC ([2]; Day 1, TRX 60 μg + CVC 150 mg) | decrease of Cmax of TRX on co-administration of CVC ([2]; Day 1, TRX 60 μg + CVC 150 mg) | reduction of AUC0-24 h,ss of TRX when co-administered with CVC [2, 13] | reduction of Cmax,ss of TRX when co-administered with CVC [2, 13] | reduction of TRX exposure by co-administration of CVC ([2]; summary statement, TRX 60 μg + CVC 150 mg) | FGF19, biomarker of FXR target engagement in the enterocyte [7]
CCCCOCCOc1ccc(-c2ccc3c(c2)/C=C(/C(=O)Nc2ccc([S@@+]([O-])Cc4cncn4CCC)cc2)CCCN3CC(C)C)cc1 [CVC, (S,E)-8-(4-(2-butoxyethoxy)phenyl)-1-(2-methylpropyl)-N-(4-(((1-propyl-1H-imidazol-5-yl)methyl)sulfinyl)phenyl)-1,2,3,4-tetrahydrobenzo[b]azocine-5-carboxamide] | reduction of fibrosis | no significant impact | can induce fatigue or diarrhea in a small part of the patients | accumulated in plasma | no marked impact | 4640 ng·h/mL | 450 ng/mL | 10800 ng·h/mL | 778 ng/mL | generally well-tolerated | no microscopic findings indicative of toxicity | – | – | – | – | – | – | – | –
CC[C@H]1[C@@H](O)[C@@H]2[C@H](CC[C@]3(C)[C@@H]([C@H](C)CCC(=O)O)CC[C@@H]23)[C@@]2(C)CC[C@@H](O)C[C@@H]12 [OCA, obeticholic acid] | – | – | – | – | – | – | – | – | – | – | – | pruritus; also recorded: increased LDL cholesterol | – | – | – | – | – | – | –
O=C(O)c1cc(F)c2nc(N3[C@@H]4CC[C@H]3C[C@@H](OCc3c(-c5ccccc5OC(F)(F)F)noc3C3CC3)C4)sc2c1 [TRX, 2-[(1R,3r,5S)-3-({5-cyclopropyl-3-[2-(trifluoromethoxy)phenyl]-1,2-oxazol-4-yl}methoxy)-8-azabicyclo [3.2.1]octan-8-yl]-4-fluoro-1,3-benzothiazole-6-carboxylic acid] | – | – | – | – | – | 17.9 ng·h/mL | 1.46 ng/mL | 25.2 ng·h/mL | 1.77 ng/mL | – | – | – | No safety concerns | 32% | 33% | 35% | 35% | 32-33% | Dose-dependent increases
